Laboratory results: article PMC11912224, “A general approach for activity-based protein profiling of oxidoreductases with redox-differentiated diarylhalonium warheads” (Chemical Science, 2025)

Columns and labels:
[1] = target: T1, EUOX (eugenol oxidase) (Rhodococcus jostii, UniProt Q0SBK1); assay: activity-based labelling, in-gel fluorescence; type: binding; details: covalent; 30 uM probe, 1 h
T1 construct: gene RHA1_ro03282; recombinant; FAD enzyme; details not in main text
T1 sequence (Q0SBK1 1-526): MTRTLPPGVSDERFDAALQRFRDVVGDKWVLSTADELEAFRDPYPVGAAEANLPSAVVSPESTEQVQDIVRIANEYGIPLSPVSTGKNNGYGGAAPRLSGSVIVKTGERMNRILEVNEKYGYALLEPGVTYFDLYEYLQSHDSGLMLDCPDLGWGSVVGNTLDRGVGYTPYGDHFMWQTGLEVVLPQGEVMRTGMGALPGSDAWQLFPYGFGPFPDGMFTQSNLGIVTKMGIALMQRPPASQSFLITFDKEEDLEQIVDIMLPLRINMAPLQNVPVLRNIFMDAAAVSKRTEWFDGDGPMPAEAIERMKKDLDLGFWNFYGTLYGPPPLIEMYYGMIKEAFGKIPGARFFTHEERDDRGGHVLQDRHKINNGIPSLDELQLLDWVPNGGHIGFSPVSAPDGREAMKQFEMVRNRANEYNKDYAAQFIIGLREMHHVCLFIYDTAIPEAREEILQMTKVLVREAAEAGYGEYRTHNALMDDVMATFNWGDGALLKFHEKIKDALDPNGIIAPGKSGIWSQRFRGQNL

[2] = target: T2, retinol dehydrogenase RDH7 (Mus musculus, UniProt O88451); assay: covalent labelling, streptavidin enrichment, LC-MS/MS; details: 30 uM probe, 1 h, mouse liver pieces
T2 construct: native, in intact mouse liver pieces
T2 sequence (O88451 1-316): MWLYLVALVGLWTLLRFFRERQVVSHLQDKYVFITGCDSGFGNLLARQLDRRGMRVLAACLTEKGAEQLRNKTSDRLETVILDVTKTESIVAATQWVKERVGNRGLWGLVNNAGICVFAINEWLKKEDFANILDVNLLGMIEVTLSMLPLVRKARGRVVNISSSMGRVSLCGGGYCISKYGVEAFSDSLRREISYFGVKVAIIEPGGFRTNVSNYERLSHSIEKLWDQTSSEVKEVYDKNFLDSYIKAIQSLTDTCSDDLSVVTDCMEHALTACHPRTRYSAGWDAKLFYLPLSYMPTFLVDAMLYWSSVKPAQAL

[N-]=[N+]=NCCCCCCCCCCNC(=O)c1ccc([I+]c2ccccc2)cc1 [3aa, diphenyliodonium probe 3aa] was tested, and the “activity-based labelling, in-gel fluorescence” value [1] was “led to the labeling of several of the tested oxidoreductases” and the “covalent labelling, streptavidin enrichment, LC-MS/MS” value [2] was “RDH7 and RDH16 were found to be labeled by probe 3aa very well”.
